Consider four compounds from ChEMBL document CHEMBL1158231, “Antiviral sulfated steroids from the ophiuroid Ophioplocus januarii” (J Nat Prod, 1996).

Data set [1] is described as follows: Cytotoxicity against african green monkey Vero cells assessed as cell viability at 40 ug/mL after 7 days by trypan blue exclusion method. Type of data set: cell-based. As to conditions: chlorocebus sabaeus, read-out: Activity.
Data set [2] has as its system Respiratory syncytial virus. Put plainly: Antiviral activity against RSV Long infected human Hep2 cells assessed as inhibition of viral-induced cytopathic effect at 5 ug/mL. Type of data set: functional. As to conditions: HEp-2. (Protection from cytopathic effect is a common read-out in antiviral testing.)
Data set [3] deals with Human alphaherpesvirus 1. Description: Antiviral activity against HSV1 F infected african green monkey Vero cells assessed as reduction of virus plaque formation at 20 ug/mL. On the set-up: scale not given: the % may be the effect or the level left. Type of data set: functional.
Data set [4] deals with Junin virus. Put plainly: Antiviral activity against Junin virus IV 4454 infected african green monkey Vero cells assessed as reduction of virus plaque formation at 5 ug/mL. In kind it is functional, Mammarenavirus juninense. On the set-up: scale not given: the % may be the effect or the level left.
For data set [5], the system named is Respiratory syncytial virus. Put plainly: Antiviral activity against RSV Long infected human Hep2 cells assessed as inhibition of viral-induced cytopathic effect at 40 ug/mL. In kind it is functional. As to conditions: HEp-2.
Data set [6] deals with Respiratory syncytial virus. Description: Antiviral activity against RSV Long infected human Hep2 cells assessed as inhibition of viral-induced cytopathic effect at 20 ug/mL. Type of data set: functional. Conditions: HEp-2.
Data set [7] relates to Vero. Put plainly: Cytotoxicity against african green monkey Vero cells at 10 ug/mL after 7 days by trypan blue exclusion method. Type of data set: cell-based. As to conditions: chlorocebus sabaeus, 168 h.
Data set [8] deals with Junin virus. Put plainly: Antiviral activity against Junin virus IV 4454 infected african green monkey Vero cells assessed as reduction of virus plaque formation at 40 ug/mL. Type of data set: functional, Mammarenavirus juninense. Also on record: scale not given: the % may be the effect or the level left.
Data set [9] relates to Human alphaherpesvirus 1. Put plainly: Antiviral activity against HSV1 F infected african green monkey Vero cells assessed as reduction of virus plaque formation at 40 ug/mL. Type of data set: functional. Also on record: scale not given: the % may be the effect or the level left.
Data set [10] relates to Poliovirus 3. Put plainly: Antiviral activity against human poliovirus 3 Sabin infected african green monkey Vero cells assessed as reduction of virus plaque formation at 10 ug/mL. On the set-up: scale not given: the % may be the effect or the level left. Type of data set: functional.
In data set [11] the test system is Junin virus. Description: Antiviral activity against Junin virus IV 4454 infected african green monkey Vero cells assessed as reduction of virus plaque formation at 20 ug/mL. On the set-up: scale not given: the % may be the effect or the level left. In kind it is functional, Mammarenavirus juninense.
Data set [12] relates to Vero. Description: Cytotoxicity against african green monkey Vero cells at 5 ug/mL after 7 days by trypan blue exclusion method. In kind it is cell-based. As to conditions: chlorocebus sabaeus, 168 h.
The test system of data set [13] is Poliovirus 3. Put plainly: Antiviral activity against human poliovirus 3 Sabin infected african green monkey Vero cells assessed as reduction of virus plaque formation at 40 ug/mL. In kind it is functional. On the set-up: scale not given: the % may be the effect or the level left.
Data set [14] has as its system Respiratory syncytial virus. Put plainly: Antiviral activity against RSV Long infected human Hep2 cells assessed as inhibition of viral-induced cytopathic effect at 10 ug/mL. Type of data set: functional. As to conditions: HEp-2.
The test system of data set [15] is Poliovirus 3. Put plainly: Antiviral activity against human poliovirus 3 Sabin infected african green monkey Vero cells assessed as reduction of virus plaque formation at 20 ug/mL. In kind it is functional. Also on record: scale not given: the % may be the effect or the level left.
Data set [16] concerns Human alphaherpesvirus 1. Description: Antiviral activity against HSV1 F infected african green monkey Vero cells assessed as reduction of virus plaque formation at 10 ug/mL. In kind it is functional. Also on record: scale not given: the % may be the effect or the level left.
Data set [17] deals with Poliovirus 3. Put plainly: Antiviral activity against human poliovirus 3 Sabin infected african green monkey Vero cells assessed as reduction of virus plaque formation at 5 ug/mL. Type of data set: functional. Also on record: scale not given: the % may be the effect or the level left.
Data set [18] deals with Vero. Put plainly: Cytotoxicity against african green monkey Vero cells at 20 ug/mL after 7 days by trypan blue exclusion method. Type of data set: cell-based. Conditions: chlorocebus sabaeus, 168 h.
Data set [19] deals with Junin virus. Put plainly: Antiviral activity against Junin virus IV 4454 infected african green monkey Vero cells assessed as reduction of virus plaque formation at 10 ug/mL. Type of data set: functional, Mammarenavirus juninense. Also on record: scale not given: the % may be the effect or the level left.
Data set [20] has as its system Human alphaherpesvirus 1. Description: Antiviral activity against HSV1 F infected african green monkey Vero cells assessed as reduction of virus plaque formation at 5 ug/mL. Type of data set: functional. Also on record: scale not given: the % may be the effect or the level left.

SMILES strings stand for the structures.

Consider `CC(C)C/C=C/[C@@H](COS(=O)(=O)[O-])[C@H]1CC[C@H]2[C@@H]3CC[C@@H]4[C@H](O)[C@H](OS(=O)(=O)[O-])CC[C@]4(C)[C@H]3[C@@H](O)C[C@]12C.[Na+].[Na+]`, for which the viability at 168 h, 40 ug/mL in data set [1] was 100%. Besides, the inhibition at 5 µg/mL in data set [2] was determined as 0%. The Activity in the data set with Human alphaherpesvirus 1 [3] is given as 14%; with Junin virus [4] it was 15%; in the data set with Vero [7], “Non-toxic”; in the data set with Junin virus [8] it was 47%; in the data set on Human alphaherpesvirus 1 [9], 39%; in the data set with Poliovirus 3 [10], 0%. Moreover, the Activity is 36% in the data set on Junin virus [11]; “Non-toxic” with Vero [12]; 68% with Poliovirus 3 [13]; 35% with Poliovirus 3 [15]; 0% in the data set with Human alphaherpesvirus 1 [16]; 0% in the data set on Poliovirus 3 [17]. Further, the Activity entry in the data set with Vero [18] is “Non-toxic”; with Junin virus [19], 31%; in the data set with Human alphaherpesvirus 1 [20], 0%. Besides, the inhibition at 40 µg/mL in data set [5] was 75%. Besides, the inhibition at 20 µg/mL in data set [6] is 50%. Further, the inhibition at 10 µg/mL in data set [14] was 25%.

Consider `CC(C)CCC[C@@H](COS(=O)(=O)[O-])[C@H]1CC[C@H]2[C@@H]3CC[C@@H]4[C@H](O)[C@H](OS(=O)(=O)[O-])CC[C@]4(C)[C@H]3[C@@H](O)C[C@]12C.[Na+].[Na+]`, for which the viability at 168 h, 40 ug/mL in data set [1] came to 100%. Moreover, in data set [2], the inhibition at 5 µg/mL was found to be 0%. The Activity with Human alphaherpesvirus 1 [3] is given as 8%; with Junin virus [4], 24%; with Vero [7] it was “Non-toxic”; in the data set with Junin virus [8], 33%; in the data set on Human alphaherpesvirus 1 [9], 35%; in the data set with Poliovirus 3 [10] it was 0%. Besides, the Activity is listed as 28% in the data set with Junin virus [11]; “Non-toxic” in the data set with Vero [12]; 30% with Poliovirus 3 [13]; 24% in the data set on Poliovirus 3 [15]; 7% with Human alphaherpesvirus 1 [16]; 0% in the data set with Poliovirus 3 [17]. Moreover, the Activity result with Vero [18] is on record as “Non-toxic”; in the data set with Junin virus [19] it was 26%; in the data set on Human alphaherpesvirus 1 [20], 2%. In [5], the inhibition at 40 µg/mL worked out at 25%. Besides, the inhibition at 20 µg/mL in [6] was determined as 25%. Besides, the inhibition at 10 µg/mL in [14] turned out to be 0%.

`CC(C)/C=C/[C@@H](COS(=O)(=O)[O-])[C@H]1CC[C@H]2[C@@H]3CC[C@@H]4[C@H](O)[C@H](OS(=O)(=O)[O-])CC[C@]4(C)[C@H]3[C@@H](O)C[C@]12C.[Na+].[Na+]`: in [1], the viability at 168 h, 40 ug/mL turned out to be 100%. Also, the inhibition at 5 µg/mL in data set [2] was found to be 0%. In addition, the Activity was 12% with Human alphaherpesvirus 1 [3]; 10% with Junin virus [4]; “Non-toxic” in the data set on Vero [7]; 37% in the data set with Junin virus [8]; 36% in the data set with Human alphaherpesvirus 1 [9]; 8% in the data set with Poliovirus 3 [10]. In addition, the Activity was 29% with Junin virus [11]; “Non-toxic” in the data set with Vero [12]; 65% with Poliovirus 3 [13]; 37% in the data set on Poliovirus 3 [15]; 0% in the data set on Human alphaherpesvirus 1 [16]; 0% with Poliovirus 3 [17]. Further, the Activity result with Vero [18] is reported as “Non-toxic”; in the data set on Junin virus [19] it was 21%; in the data set on Human alphaherpesvirus 1 [20], 0%. The inhibition at 40 µg/mL in data set [5] was determined as 75%. Also, the inhibition at 20 µg/mL in [6] was determined as 50%. The inhibition at 10 µg/mL in data set [14] came out at 0%.

`C=C(CC[C@@H](COS(=O)(=O)[O-])[C@H]1CC[C@H]2[C@@H]3CC[C@@H]4[C@H](O)[C@H](OS(=O)(=O)[O-])CC[C@]4(C)[C@H]3[C@@H](O)C[C@]12C)C(C)C.[Na+].[Na+]`: the viability at 168 h, 40 ug/mL in data set [1] was 100%. Besides, the inhibition at 5 µg/mL in data set [2] was 0%. The Activity in the data set on Human alphaherpesvirus 1 [3] was 20%; with Junin virus [4] it was 19%; in the data set on Vero [7], “Non-toxic”; with Junin virus [8], 54%; in the data set with Human alphaherpesvirus 1 [9], 36%; in the data set with Poliovirus 3 [10], 0%. The Activity with Junin virus [11] is listed as 38%; in the data set on Vero [12] it was “Non-toxic”; with Poliovirus 3 [13], 31%; in the data set on Poliovirus 3 [15], 16%; with Human alphaherpesvirus 1 [16], 11%; in the data set on Poliovirus 3 [17] it was 0%. The Activity result with Vero [18] is “Non-toxic”; in the data set on Junin virus [19] it was 33%; in the data set with Human alphaherpesvirus 1 [20] it was 3%. Moreover, the inhibition at 40 µg/mL in [5] stood at 50%. The inhibition at 20 µg/mL in [6] is 25%. Moreover, the inhibition at 10 µg/mL in data set [14] came out at 25%.

The inhibition is the percentage by which the read-out fell short of the control.
